Assay results taken from US11434241B2, “Pyrimidine derivatives for prevention and treatment of bacterial infections” (UNIVERSITE DE LIEGE, priority 2018, dated 2022).
In brackets after ≈: the same amount, converted by molar mass. Like-named read-outs stand apart in the source and are kept apart here.

Tests used:
[1] = tested on: methicillin-resistant S. aureus (MRSA) ATCC BAA-1556; experiment: MIC determination on methicillin-resistant S. aureus; format: cell-based, Staphylococcus aureus; conditions: for MIC: Staphylococcus aureus; for antibacterial activity against MRSA (in words): MHB medium
Procedure: (§1) Further experiments are conducted using different strains of S. aureus, as clinically relevant Gram-positive bacterial strains: S. aureus ATCC 25904, methicillin-resistant S. aureus (MRSA) ATCC BAA-1556, Glycopeptide intermediate-resistant (GISA) S. aureus Mu-50 (ATCC 700695) in order to determine the Minimal Inhibitory Concentration (MIC) which is the minimal concentration required to prevent bacterial growth. The bioluminescent strain S. aureus Xen29 (ATCC 12600) was also used. This strain is derived from the parental strain S. aureus ATCC 12600, a pleural fluid isolate, which is also designated as NCTC8532.
(§2) A single colony selected from the different strains of S. aureus is resuspended and cultured in brain heart infusion (BHI) broth overnight (O/N) in aerobic conditions (37° C. with 220 rpm shaking), next day a 1:100 inoculum in Mueller-Hinton broth (MHB) is incubated in aerobic conditions for 3 hr (=OD0.08-0.1) and an inoculum of 1:300 dilution, corresponding to 3×10^5 CFU/ml, is incubated in presence or absence of different concentrations of the tested molecules in 1% DMSO. After O/N growth the OD of each culture was measured at 600 nm (OD600) in a spectrophotometer (Victor 3-Perkin Elmer). The MIC represents the concentration at which there is no visible growth of bacteria, i.e. ΔOD at 600 nm equal to zero (blank is the medium alone). […] The MIC of molecule 2329 against Glycopeptide intermediate-resistant (GISA) S. aureus Mu-50 (ATCC 700695) is in between 25 and 30 μM, while it is above 50 μM for molecules 2348, 2412, and 2452.
(§3) Further experiments are conducted using different strains of S. aureus, as clinically relevant Gram-positive bacterial strains: methicillin-resistant S. aureus (MRSA) ATCC BAA-1556 and S. aureus Xen29 (Perkin Elmer ATCC 12600).
(§4) To determine the MIC of the above mentioned molecules in MRSA or in Xen29, a single colony of MRSA or Xen29 is resuspended and cultured in brain heart infusion (BHI) broth overnight (O/N) in aerobic conditions (37° C. with 220 rpm shaking), next day a 1:100 inoculum in Mueller-Hinton broth (MHB) is incubated in aerobic conditions for 3 hr (OD=0.08-0.1) and an inoculum of 1:300 dilution, corresponding to 3×10^5 CFU/ml, is incubated in presence or absence of different concentrations of the tested molecules in 1% DMSO. After O/N growth the OD of each culture was measured at 600 nm (OD600) in a spectrophotometer (Victor 3-Perkin Elmer). The MIC represents the concentration at which there is no visible growth of bacteria, i.e. ΔOD at 600 nm equal to zero (blank is the medium alone).
(§5) Molecule 36z has been tested for its potential antibacterial activity by determining its minimal inhibitory concentration (MIC) according to protocols recommended by EUCAST to assess the efficacy of antibiotics against bacterial strains. In brief MIC in MRSA (ATCC BAA-1556) or in Xen29 (Perkin Elmer-ATCC 12600) for 36z (molecule 25 in WO2009/034386) was determined by culturing a single colony of MRSA or Xen29 in brain heart infusion (BHI) broth overnight (O/N) in aerobic conditions (37° C. with 220 rpm shaking), while MIC for MRSE (ATCC 35984) was determined by culturing MRSE in TSB O/N. Next day a 1:100 inoculum in Mueller-Hinton broth (MHB) is incubated in aerobic conditions for 3 hr (OD=0.08-0.1) and an inoculum of 1:300 dilution, corresponding to 3×10^5 CFU/ml, is incubated in presence or absence of different concentrations of the tested molecules in 1% DMSO. After O/N growth the OD of each culture was measured at 600 nm (OD600) in a spectrophotometer (Victor 3-Perkin Elmer). The MIC represents the concentration at which there is no visible growth of bacteria, i.e. ΔOD at 600 nm equal to zero (blank is the medium alone). No antibacterial activity was found against MRSA (ATCC BAA-1556), Xen29 (Perkin Elmer-ATCC 12600 or MRSE (ATCC 35984) strains when the molecule was used at concentrations up to 200 μM.

[2] = tested on: Staphylococcus aureus (Xen29-ATCC 12600) biofilm formation; experiment: S. aureus Xen29 biofilm formation (bioluminescence imaging, IVIS); format: cell-based; conditions: imaged every 60 min for 13 hours; for biofilm formation (photon signal per surface unit): 10 μM, vs vehicle DMSO 1%; for biofilm formation (photon signal per second, radiance): 20 μM, vs vehicle
Procedure: (§6) Bioluminescent S. aureus (Xen29, Perkin Elmer-(ATCC 12600)) is grown overnight in TSB medium, before being diluted 100 fold in fresh TSB, and incubated aerobically at 37° C. until bacteria culture reached an OD600 of 0.6 (corresponding to approximately 1-3×10^8 CFU/ml). Bacteria cultures are then diluted to 1×10^4 CFU/ml in fresh TSB. 600 μl aliquots of diluted bacteria suspensions are distributed in each well of a 48-well plate. Bacteria are allowed to adhere for 3 hours under static conditions at 37° C. After removing media, wells are rinsed 2 times with PBS to eliminate planktonic bacteria and re-filled with TSB supplemented with 0.5% glucose
(§7) […] Biofilm formation is imaged every 60 min, for 13 hours, using a IVIS camera system (Xenogen Corp.) Total photon emission from each well is then quantified using the Living Image software package (Xenogen Corp.).
as §6, with “suspensions were” for “suspensions are”
as §7
as §6, with “was” for “(Xen29, Perkin Elmer-(ATCC 12600)) is”, “O/N” for “overnight”, “were” for “are”, “TSB and aliquots of” for “TSB.”, “were” for “aliquots of diluted bacteria suspensions are”, “glucose. Molecules 2666 and 2511 were then added at 20 μM final concentration. Biofilm formation is imaged every 60 min, for 13 hours, using a IVIS camera system (Xenogen Corp.) Total photon emission from each well (photon/second:p/s) is then quantified using the Living Image software package (Xenogen Corp.).” for “glucose”

[3] = tested on: S. aureus Xen29 (ATCC 12600); experiment: MIC determination on bioluminescent S. aureus Xen29; format: cell-based, Staphylococcus aureus; conditions: for MIC: Staphylococcus aureus; for antibacterial activity / inhibition of Xen29 growth (in words): MHB medium
Procedure: as §1, §2, §3, §4, §5

[4] = ATCC12600, read-out: MIC S. aureus Xen29

For `CCCSc1nc(N[C@@H]2C[C@H]2c2ccc(F)c(F)c2)c2ncn(C)c2n1` [Molecule 2329, N-((1R,2S)-2-(3,4-difluorophenyl)cyclopropyl)-9-methyl-2-(propylthio)-9H-purin-6-amine], the MIC ([1]; read-out: MIC S. aureus MRSA) was 20 µM (≈ 7.51 µg/mL), the “biofilm formation (photon signal per surface unit)” value [2] was “fully prevented biofilm formation” and the MIC [3, 4] was 20 to 25 µM (≈ 7.51 to 9.39 µg/mL).

In the case of `CCCSc1nc(N[C@@H]2C[C@H]2c2ccc(F)c(F)c2)c2ncn(CC)c2n1` [Molecule 2348, N-((1R,2S)-2-(3,4-difluorophenyl)cyclopropyl)-9-ethyl-2-(propylthio)-9H-purin-6-amine], the MIC ([1]; read-out: MIC S. aureus MRSA) is reported as 25 µM (≈ 9.74 µg/mL), the “biofilm formation (photon signal per surface unit)” value [2] is reported as “fully prevented biofilm formation” and the MIC [3, 4] is reported as 20 to 25 µM (≈ 7.79 to 9.74 µg/mL).

In the case of `C=CCn1cnc2c(N[C@@H]3C[C@H]3c3ccc(F)c(F)c3)nc(SCCC)nc21` [Molecule 2412, 9-allyl-N-((1R,2S)-2-(3,4-difluorophenyl)cyclopropyl)-2-(propylthio)-9H-purin-6-amine], the MIC ([1]; read-out: MIC S. aureus MRSA) is reported as 25 to 50 µM (≈ 10 to 20.1 µg/mL), the “biofilm formation (photon signal per surface unit)” value [2] is reported as “delay biofilm formation” and the MIC [3, 4] is reported as 20 to 25 µM (≈ 8.03 to 10 µg/mL).

For `C#CCn1cnc2c(N[C@@H]3C[C@H]3c3ccc(F)c(F)c3)nc(SCCC)nc21` [Molecule 2452, N-((1R,2S)-2-(3,4-difluorophenyl)cyclopropyl)-9-(prop-2-yn-1-yl)-2-(propylthio)-9H-purin-6-amine], the MIC ([1]; read-out: MIC S. aureus MRSA) was 25 to 50 µM (≈ 9.99 to 20 µg/mL), the “biofilm formation (photon signal per surface unit)” value [2] was “delay biofilm formation” and the MIC [3, 4] was 20 to 25 µM (≈ 7.99 to 9.99 µg/mL).

With `CCn1cnc2c(N[C@@H]3C[C@H]3c3ccc(F)c(F)c3)nc(SC)nc21` [Molecule 2511, N-((1R,2S)-2-(3,4-difluorophenyl)cyclopropyl)-9-ethyl-2-(methylthio)-9H-purin-6-amine] the “antibacterial activity against MRSA (in words)” value [1] was “active”, the MIC ([1]; read-out: MIC MRSA) was 30 µM (≈ 10.8 µg/mL) and the “biofilm formation (photon signal per second, radiance)” value [2] was “inhibited biofilm growth”. For the same compound, the “antibacterial activity / inhibition of Xen29 growth (in words)” value [3] was “able to inhibit” and the MIC ([3]; ATCC12600, read-out: MIC Xen29) was 30 µM (≈ 10.8 µg/mL).

`CCSc1nc(N[C@@H]2C[C@H]2c2ccc(F)c(F)c2)c2cnn(C)c2n1.Cl` [Molecule 2666, N-((1R,2S)-2-(3,4-difluorophenyl)cyclopropyl)-6-(ethylthio)-1-methyl-1H-pyrazolo[3,4-d]pyrimidin-4-amine hydrochloride] was tested, and the “antibacterial activity against MRSA (in words)” value [1] was “active”, the MIC ([1]; read-out: MIC MRSA) was 20 µM and the “biofilm formation (photon signal per second, radiance)” value [2] was “inhibited biofilm growth”. For the same compound, the “antibacterial activity / inhibition of Xen29 growth (in words)” value [3] was “able to inhibit” and the MIC ([3]; ATCC12600, read-out: MIC Xen29) was 20 µM.
